Patent US20140323522A1, “Method of Treating Cancer” (Exelixis, Inc., priority 2011, published 2014)

How the values were obtained:
mature OCs = experiment: in vitro osteoclast (OC) activity assay (bone resorption by mature OCs); type: cell-based, human; settings: day 10
[1] = system: pancreatic neuroendocrine tumor; experiment: murine pancreatic neuroendocrine tumor model; settings: mouse, in vivo
Mouse KS482 cells [2] = experiment: in vitro osteoblast (OB) bone-forming activity assay; type: cell-based
[3] = phase 1 clinical study, tolerability
[4] = system: castration-resistant prostate cancer (CRPC) with bone metastases; experiment: Phase 2 trial (NCT00940225) case studies of CRPC patients with bone metastases treated with compound 1; type: in vivo, human
Excerpt: All patients provided informed consent before study screening.

Mouse KS482 cells [5] = experiment: in vitro osteoblast (OB) differentiation assay; type: cell-based; settings: day 8
[6] = system: proteins related to the VEGF pathway (VEGF, NRP-1, HIF1α); experiment: IHC and single quantum-dot labeling of ARCaPM tumors in tibia sections, VEGF pathway proteins; type: in vivo, nude mice; settings: 10 mg/kg or 30 mg/kg, 7 weeks, vs vehicle
xenograft tumor models = experiment: xenograft tumor models; settings: in vivo
[7] = system: endothelial cells and tumor cells; experiment: apoptosis of endothelial cells and tumor cells
[8] = system: CD34+ cells derived from human bone marrow; experiment: in vitro osteoclast (OC) differentiation assay; type: cell-based; settings: day 7
oral bioavailability = settings: in vivo
Human CRPC ARCaPM cells = experiment: ARCaPM in vivo efficacy study (intratibial xenografts); design: species or system nude mice
Experimental: Micro-CT-based quantification (Scanco 40 instrument) of 5 tibiae per group with 2 measurements each were used. ([…]) indicates vehicle tibia lacking detectable tumor in the section evaluated by histology. […] Bioquant® Image Analysis software was used for the histomorphometry of H&E-stained sections. Tumor (8A) and bone area (8B) were measured in the evaluated sections by tracing their outline within an area of 1×1 mm^2 (total tissue area) near the center of the growth plate. Percentages relative to the total tissue area were calculated. […] Bioquant® Image Analysis software was used for the histomorphometry of consecutive H&E- and TRAP-stained sections. (9A) Based on TRAP stain, OC numbers were counted along the border of the trabecular bone within the same tissue area used to assess tumor and bone area (FIG. 8). The ratio of OCs per bone perimeter (OC/mm) was calculated. (9B) OBs were counted along the trabecular bone surface in the same area on the H&E-stained sections and the number of OBs per bone perimeter (0 B/mm) was calculated. ([…]) indicates vehicle-treated mice without detectable tumor in the corresponding tumor area analysis (FIG. 8A). (A) indicates compound 1-treated mice with detectable tumor in the corresponding tumor area analysis (FIG. 8A).

[9] = 10 mg/kg or 30 mg/kg, 7 weeks, compared to vehicle
[10] = 10 mg/kg or 30 mg/kg, 7 weeks, relative to vehicle

For `COc1cc2nccc(Oc3ccc(NC(=O)C4(C(=O)Nc5ccc(F)cc5)CC4)cc3)c2cc1OC` [Compound 1, N-(4-{[6,7-bis(methyloxy)quinolin-4-yl]oxy}phenyl)-N′-(4-fluorophenyl)cyclopropane-1,1-dicarboxamide], which “ability of mature OCs to resorb bone (secreted CTX normalized to TRACP 5b)” value (mature OCs) is on record?
Its value is “does not affect”.

What about the overall survival [1] of the same molecule?
The overall survival was “substantially improves”.

And the “tumor invasiveness and metastasis” value [1]?
Its value is “significantly reduces”.

What about the “OB bone forming activity (organic and inorganic bone matrix)” value (Mouse KS482 cells [2]) of the same molecule?
Its value is “biphasic effects”.

And the “most commonly observed adverse events” value [3]?
Its value is “fatigue, diarrhea, anorexia, rash, and palmar-plantar erythrodysesthesia”.

What about the tolerability [3] of the same molecule?
The tolerability was “generally well-tolerated”.

And the “Hemoglobin (best response, change)” value ([4]; Patient 1, 100 mg dose)?
The value was “+1.4 g/dL”.

What about the “Pain (best response)” value ([4]; Patient 1, 100 mg dose) of the same molecule?
The value was “Improvement”.

What about the “Tumor response (best response)” value ([4]; Patient 1, 100 mg dose) of the same molecule?
The value was −41%.

What about the “tALP (best response, change)” value ([4]; Patient 1, 100 mg dose) of the same molecule?
Its value is −77%.

And the “increase in hemoglobin compared with baseline” value (“increase in hemoglobin” below) ([4]; Patient 1, Week 2)?
Its value is 1.4 g/dL.

What about the “CT scan response category” value ([4]; Patient 1, Week 6) of the same molecule?
The value was “partial response (PR)”.

And the “CT scan, decrease in measurable target lesions” value ([4]; Patient 1, Week 6)?
The value was 33%.

And the “bone scan, radiotracer uptake by bone metastases” value ([4]; Patient 1, Week 6)?
The value was “dramatic decrease in radiotracer uptake”.

And the “bone lesions on bone scan” value ([4]; Patient 1, Week 12)?
Its value is “near complete resolution of bone lesions”.

And the “decrease in target lesions” value ([4]; Patient 1, Week 12, stable through Week 18)?
The value was 44%.

What about the “adverse event leading to withdrawal” value ([4]; Patient 1, Week 18) of the same molecule?
The value was “Grade 3 diarrhea”.

What about the PSA level ([4]; Patient 1, Week 18 (430 ng/mL at baseline)) of the same molecule?
Its PSA level is 93.5 ng/mL.

What about the “serum tALP level” value ([4]; Patient 1, Week 18 (689 U/L at baseline)) of the same molecule?
The value was 159 U/L.

What about the bone pain ([4]; Patient 1, four weeks after start) of the same molecule?
The bone pain was “significant reduction in bone pain”.

And the “Bone scan (best response)” value ([4]; Patient 2, 100 mg dose)?
The value was “Improvement”.

What about the “Hemoglobin (best response, change)” value ([4]; Patient 2, 100 mg dose) of the same molecule?
The value was “+1.8 g/dL”.

And the “Pain (best response)” value ([4]; Patient 2, 100 mg dose)?
The value was “Pain-free”.

And the “Tumor response (best response)” value ([4]; Patient 2, 100 mg dose)?
The value was −20%.

And the “tALP (best response, change)” value ([4]; Patient 2, 100 mg dose)?
The value was −6%.

And the bone pain ([4]; Patient 2, Week 4)?
The bone pain was “reduction in bone pain”.

And the “CT scan, decrease in target lesions” value ([4]; Patient 2, Week 6)?
The value was 13%.

What about the “bone scan, radiotracer uptake by bone lesions” value ([4]; Patient 2, Week 6) of the same molecule?
Its value is “slight flair in radiotracer uptake”.

What about the “bone scan, radiotracer uptake” value ([4]; Patient 2, Week 12) of the same molecule?
The value was “substantial reduction of radiotracer uptake”.

What about the “decrease in measurable disease” value ([4]; Patient 2, Week 12) of the same molecule?
Its value is 20%.

What about the “increase in hemoglobin” value ([4]; Patient 2, Week 12) of the same molecule?
The value was 1.8 g/dL.

And the “Hemoglobin (best response, change)” value ([4]; Patient 3, 100 mg dose)?
Its value is “+2.2 g/dL”.

And the “PSA (best response, change)” value ([4]; Patient 3, 100 mg dose)?
Its value is −57%.

What about the “Pain (best response)” value ([4]; Patient 3, 100 mg dose) of the same molecule?
Its value is “Pain-free”.

What about the “Tumor response (best response)” value ([4]; Patient 3, 100 mg dose) of the same molecule?
Its value is −51%.

And the “tALP (best response, change)” value ([4]; Patient 3, 100 mg dose)?
The value was −77%.

What about the “increase in hemoglobin” value ([4]; Patient 3, Week 2) of the same molecule?
The value was 2.2 g/dL.

What about the “CT scan, decrease in measurable target lesions” value ([4]; Patient 3, Week 6) of the same molecule?
The value was 43%.

And the “bone scan, radiotracer uptake” value ([4]; Patient 3, Week 6)?
Its value is “dramatic reduction in radiotracer uptake”.

And the “bone lesions on bone scan” value ([4]; Patient 3, Week 12)?
The value was “complete resolution of bone lesions”.

What about the “decrease in measurable disease” value ([4]; Patient 3, Week 12) of the same molecule?
The value was 51%.

And the PSA level ([4]; Patient 3, Week 18 (2.4 ng/mL at screening))?
The PSA level was 1.2 ng/mL.

What about the “serum tALP level” value ([4]; Patient 3, Week 18 (869 U/L at baseline)) of the same molecule?
Its value is 197 U/L.

What about the pain ([4]; Patient 3, after three weeks) of the same molecule?
Its pain is “complete resolution of pain”.

What about the “OB differentiation (cellular ALP activity)” value (Mouse KS482 cells [5]) of the same molecule?
Its value is “biphasic effects”.

What about the “IHC staining of proteins related to the VEGF pathway (VEGF, NRP-1, HIF1α) in ARCaPM tumors” value [6] of the same molecule?
Its value is “decreased IHC staining”.

And the “tumor growth in xenograft tumor models” value (xenograft tumor models)?
Its value is “causes tumor regression”.

What about the “apoptosis of endothelial cells and tumor cells” value [7] of the same molecule?
Its value is “rapidly induces apoptosis”.

What about the “OC differentiation (secreted TRACP 5b levels)” value [8] of the same molecule?
Its value is “inhibits in vitro osteoclast (OC) differentiation in a dose-dependent manner”.

And the oral bioavailability (oral bioavailability)?
The oral bioavailability was “orally bioavailable”.

What about the “osteoblasts (OBs) along the trabecular bone, tibia sections” value (Human CRPC ARCaPM cells; [9]) of the same molecule?
The value was “increased OBs”.

And the “osteoclasts (OCs) along the trabecular bone, tibia sections” value (Human CRPC ARCaPM cells; [9])?
Its value is “no change in OCs”.

And the “bone mineral density, micro-CT” value (Human CRPC ARCaPM cells; [10])?
Its value is “preserves”.

And the “bone volume/tissue volume (BV/TV), micro-CT” value (Human CRPC ARCaPM cells; [10])?
Its value is “preserves”.

And the “progression of CRPC ARCaPM tumor xenografts in bone (X-ray, micro-CT of tibiae)” value (Human CRPC ARCaPM cells; 30 mg/kg, 7 weeks of treatment, vs vehicle)?
Its value is “blocks progression”.

And the “progression of CRPC ARCaPM tumor xenografts in bone (H&E stain of tibia sections)” value (Human CRPC ARCaPM cells; 7 weeks of treatment, vs vehicle)?
Its value is “blocks progression”.
